Measured values: the RepoRT retention time repository (doi:10.1016/j.aca.2011.01.006)

assay: Waters SunFire C18, 150 × 2.1 mm, 3.5 µm, 35 °C, 0.3 mL/min, estimated dead time 1.1 min; A: water + 0.1% formic acid; B: acetonitrile + 0.1% formic acid; gradient (min/%B) 0/20 5/20 20/50 25/100; conditions: stereoisomer not certain

Row | LC retention time | Compound
1 | 20.4 min | CC1(C)OC(=O)C(OCC2CC2)=C1c1ccc(S(C)(=O)=O)cc1
2 | 4.2 min | CCCCOc1cc(C(=O)OCCN(CC)CC)ccc1N
3 | 9 min | CC[N+](C)(CC)CCOC(=O)C(O)(c1ccccc1)C1CCCCC1 (configuration not stated)
4 | 22 min | CC(=O)SC1CC2=CC(=O)CCC2(C)C2CCC3(C)C(CCC34CCC(=O)O4)C12 (configuration not stated)
5 | 4.1 min | Cc1cc(=O)n(-c2ccccc2)n1C
6 | 5 min | COc1ccccc1OCC(O)CO (configuration not stated)
7 | 5.4 min | CC(=O)CCCCn1c(=O)c2c(ncn2C)n(C)c1=O
8 | 16.8 min | CS(=O)(=O)c1ccc(C2=C(c3ccccc3)C(=O)OC2)cc1
9 | 2.7 min | COc1ccc2nc(S(=O)Cc3ncc(CO)c(OC)c3C)[nH]c2c1 (configuration not stated)
10 | 9.6 min | CC[N+]1(CC)CCC(=C(c2ccccc2)c2ccccc2)C1C (configuration not stated)
11 | 24 min | CCCCC1C(=O)N(c2ccccc2)N(c2ccccc2)C1=O
12 | 2.2 min | C[N+]1(CCC(O)(c2ccccc2)c2cccs2)CCOCC1 (configuration not stated)
13 | 15.8 min | CN1C(C(=O)Nc2ccc(O)cn2)=C(O)c2ccccc2S1(=O)=O
14 | 8.8 min | CN(C)CCCN1c2ccccc2Sc2ccccc21
15 | 2 min | COc1ccc(CN(CCN(C)C)c2ccccn2)cc1
16 | 1.9 min | Cn1c(=O)c2c(ncn2CC(O)CO)n(C)c1=O (configuration not stated)
17 | 1.7 min | CN1CC(O)c2cc(N=NC(N)=O)c(O)cc21 (configuration not stated)
18 | 15.1 min | CC1CC2C3CCC4=CC(=O)C=CC4(C)C3C(=O)CC2(C)C1(O)C(=O)CO (configuration not stated)
19 | 14.7 min | O=C1NC(=O)C(c2ccccc2)(c2ccccc2)N1
20 | 21.3 min | CCCN(CCC)S(=O)(=O)c1ccc(C(=O)O)cc1
21 | 1.8 min | Cc1cccc(C)c1NC(=O)C1CCCCN1C (configuration not stated)
22 | 12.4 min | CC12C=CC(=O)C=C1CCC1C2C(=O)CC2(C)C1CCC2(O)C(=O)CO (configuration not stated)
23 | 12.3 min | CC12C=CC(=O)C=C1CCC1C2C(O)CC2(C)C1CCC2(O)C(=O)CO (configuration not stated)
24 | 21.9 min | CS(=O)(=O)Nc1ccc([N+](=O)[O-])cc1Oc1ccccc1
25 | 2.4 min | Cn1c(=O)c2c(ncn2C)n(C)c1=O
26 | 15.2 min | CN1C(C(=O)Nc2ccccn2)=C(O)c2ccccc2S1(=O)=O
27 | 18.5 min | Cc1onc(-c2ccccc2)c1-c1ccc(S(N)(=O)=O)cc1

Row | LC retention time | Compound
28 | 2 min | COc1cc(OC)c(C(=O)CCCN2CCCC2)c(OC)c1
29 | 12.1 min | CCCn1cnc2c1c(=O)n(CCCCC(C)=O)c(=O)n2C
30 | 9.8 min | CC(C)[N+](C)(CCOC(=O)C1c2ccccc2Oc2ccccc21)C(C)C
31 | 11.1 min | CCN(CC)CCOC(=O)C(Cc1cccc2ccccc12)CC1CCCO1 (configuration not stated)
32 | 12.3 min | CCOC(=O)c1ccc(N)cc1
33 | 22 min | CC12CCC(=O)C=C1C=CC1C2CCC2(C)C1CCC21CCC(=O)O1 (configuration not stated)
34 | 4.2 min | COc1ccc2nc(S(=O)Cc3ncc(C)c(OC)c3C)[nH]c2c1 (configuration not stated)
35 | 2.9 min | Nc1nc(N)c2nc(-c3ccccc3)c(N)nc2n1
36 | 15.1 min | COC(=O)C1CC2=CC(=O)CCC2(C)C23OC2CC2(C)C(CCC24CCC(=O)O4)C13 (configuration not stated)
37 | 15.5 min | O=C1CN(N=Cc2ccc(-c3ccc([N+](=O)[O-])cc3)o2)C(=O)N1
38 | 9.6 min | CN(C)CCCN1c2ccccc2CCc2ccccc21
39 | 12.6 min | CC12CCC(=O)C=C1CCC1C2C(O)CC2(C)C1CCC2(O)C(=O)CO (configuration not stated)
40 | 21.4 min | Cc1cc(NC(=O)C2=C(O)c3ccccc3S(=O)(=O)N2C)no1
41 | 2 min | Cn1c(=O)c2c(ncn2CCO)n(C)c1=O
42 | 9 min | CN1C(C(=O)Nc2ccccn2)=C(O)c2sccc2S1(=O)=O
43 | 1.8 min | CCN(CC)CC(=O)Nc1c(C)cccc1C
44 | 2.9 min | CCCCN1CCCCC1C(=O)Nc1c(C)cccc1C (configuration not stated)
45 | 10.3 min | CN(C)CCC=C1c2ccccc2CCc2ccccc21
46 | 8.7 min | CC(=O)c1ccc2c(c1)N(CCCN(C)C)c1ccccc1S2
47 | 4.3 min | CCC1(c2ccccc2)C(=O)NCNC1=O
48 | 2.6 min | Cc1c(NC=O)c(=O)n(-c2ccccc2)n1C
49 | 10 min | CCN(CC)CCOCCOC(=O)C1(c2ccccc2)CCCC1
50 | 2 min | Cn1cnc2c1c(=O)[nH]c(=O)n2C
51 | 19.3 min | CC(C(=O)O)c1cccc(C(=O)c2ccccc2)c1 (configuration not stated)
52 | 20.7 min | CCCCNc1cc(C(=O)O)cc(S(N)(=O)=O)c1Oc1ccccc1
53 | 1.8 min | CC(C)(C)NCC(O)COc1nsnc1N1CCOCC1 (configuration not stated)
54 | 10.6 min | COc1ccc(CCN(C)CCCC(C#N)(c2ccc(OC)c(OC)c2)C(C)C)cc1OC (configuration not stated)

Row | LC retention time | Compound
55 | 6.4 min | COc1ccccc1OCC(O)COC(N)=O (configuration not stated)
56 | 19.8 min | CCCCC1C(=O)N(c2ccccc2)N(c2ccc(O)cc2)C1=O (configuration not stated)
57 | 20.1 min | CCCC1OC2CC3C4CCC5=CC(=O)C=CC5(C)C4C(O)CC3(C)C2(C(=O)CO)O1 (configuration not stated)
58 | 5.1 min | CN(C)CCOC(c1ccccc1)c1ccccc1
59 | 1.9 min | CN(C)CCN(Cc1ccccc1)c1ccccn1
60 | 14.6 min | CC1CC2C(C(O)CC3(C)C2CCC3(O)C(=O)CO)C2(C)C=CC(=O)C=C12 (configuration not stated)
61 | 21.8 min | CCC(=O)NS(=O)(=O)c1ccc(-c2c(-c3ccccc3)noc2C)cc1
62 | 9.9 min | CN(C)CCCOc1nn(Cc2ccccc2)c2ccccc12
63 | 24 min | CC(C)(C)C(=O)SCC(=O)C1(O)CCC2C3CCC4=CC(=O)CCC4(C)C3C(O)CC21C (configuration not stated)
64 | 15.2 min | O=C1NC(=O)N(N=Cc2ccc(-c3ccc([N+](=O)[O-])cc3)o2)C1O (configuration not stated)
65 | 1.4 min | CC(C)[N+]1(C)C2CCC1CC(OC(=O)C(CO)c1ccccc1)C2 (configuration not stated)
66 | 3.5 min | CC(=O)N=c1sc(S(N)(=O)=O)nn1C
67 | 2.9 min | CN1CCOC(c2ccccc2)c2ccccc2C1 (configuration not stated)
68 | 1.9 min | Cn1c(=O)c2[nH]cnc2n(C)c1=O
69 | 2.3 min | CC(=O)Nc1nnc(S(N)(=O)=O)s1
70 | 17.4 min | CN1CC(=O)N2C(Cc3c([nH]c4ccccc34)C2c2ccc3c(c2)OCO3)C1=O (configuration not stated)
71 | 8.5 min | Cc1cccc(Nc2ccncc2S(=O)(=O)NC(=O)NC(C)C)c1
72 | 2.4 min | CCN(CC)C(=O)c1cccnc1
73 | 3 min | CCC1(c2cnc[nH]2)Cc2ccccc2C1
74 | 2.42 min | Cn1c(=O)c2c(ncn2CC(=O)O)n(C)c1=O
75 | 16.5 min | CC1(C)OC2CC3C4CCC5=CC(=O)C=CC5(C)C4C(O)CC3(C)C2(C(=O)CO)O1 (configuration not stated)
76 | 22.6 min | COc1cc(CNC(=O)CCCCC=CC(C)C)ccc1O
77 | 4.9 min | CCCCNc1ccc(C(=O)OCCN(C)C)cc1
78 | 16.3 min | O=C(c1ccccc1)c1ccc2n1CCC2C(=O)O (configuration not stated)
79 | 8.2 min | CCCc1nn(C)c2c(=O)[nH]c(-c3cc(S(=O)(=O)N4CCN(C)CC4)ccc3OCC)nc12
80 | 3.4 min | CCCc1nc(C)c2c(=O)[nH]c(-c3cc(S(=O)(=O)N4CCN(CC)CC4)ccc3OCC)nn12

Row | Compound | LC retention time
81 | CN1C2CCC1C(C(=O)O)C(OC(=O)c1ccccc1)C2 (configuration not stated) | 2.6 min
82 | CCCC(Cc1ccccc1)N1CCCC1 (configuration not stated) | 2.9 min
83 | Oc1ccc2c(c1)C13CCCCC1(O)C(C2)N(CC1CCC1)CC3 (configuration not stated) | 2.5 min
84 | COc1cccc(C2(O)CCCCC2CN(C)C)c1 (configuration not stated) | 1.9 min
85 | CCOC(=O)C1(c2ccccc2)CCN(C)CC1 | 2.2 min
86 | C[N+]1(C)CCCC(OC(=O)C(O)(c2ccccc2)c2ccccc2)C1 (configuration not stated) | 3 min
87 | CCCCCc1cc(O)c2c(c1)OC(C)(C)C1CCC(C(=O)O)=CC21 (configuration not stated) | 25.1 min
88 | Cc1cccc(C(C)c2cnc[nH]2)c1C (configuration not stated) | 2.8 min
89 | CC(C)c1c(CN(C)C(C)Cc2ccccc2)n(C)n(-c2ccccc2)c1=O (configuration not stated) | 10.8 min
90 | CCN(CCO)CCn1c(Cc2ccccc2)nc2c1c(=O)n(C)c(=O)n2C | 1.5 min
91 | CCCCCCCCC(=O)NCc1ccc(O)c(OC)c1 | 22.4 min
92 | Cc1cccc(C)c1NC1=NCCCS1 | 1.8 min
93 | C[N+]12CCC(CC1)C(OC(=O)C(O)(c1ccccc1)c1ccccc1)C2 (configuration not stated) | 3.4 min
94 | CC12CCC(=O)C=C1C=CC1C2CCC2(C)C1CCC2(O)CCC(=O)O (configuration not stated) | 16.1 min
95 | N=C1NC(=O)C(c2ccccc2)O1 (configuration not stated) | 3.4 min
96 | CC[N+]1(C)CCCC(OC(=O)C(O)(c2ccccc2)c2ccccc2)C1 (configuration not stated) | 3.4 min
97 | COC(=O)C(c1ccccc1)C1CCCCN1 (configuration not stated) | 1.8 min
98 | CC(C)[N+](C)(CCC(C(N)=O)(c1ccccc1)c1ccccc1)C(C)C | 3.4 min
99 | CCC1(O)CCC2C3CCC4=CC(=O)CCC4=C3C=CC21CC (configuration not stated) | 22.9 min
100 | C=CCC1(O)CCC2C3CCC4=CC(=O)CCC4=C3C=CC21C (configuration not stated) | 22.1 min
101 | CCC1(c2ccccc2)C(=O)NC(=O)NC1=O | 4.9 min
102 | CCCC[N+]1(C)C2CC(OC(=O)C(CO)c3ccccc3)CC1C1OC12 (configuration not stated) | 2.3 min
